Laboratory results published in PubChem BioAssay AID1963969 (Molecular Pharmacology Branch, DTP, NCI, 2024).

System: 817829-284-R-J1-PDC multi-cell spheroid viability
Assay: Anticancer human tumor 817829-284-R-J1-PDC patient-derived colon adenocarcinoma cell line growth inhibition [PI3K]
Conditions: for IC50: curve of first compound; for viability, T/C: stronger effect = lower value
Summary of the method: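 Multi-cell spheroids combine tumor cells with HUVEC and human MSCs, treated with targeted agents alone or with inavolisib, alpelisib, duvelisib or copanlisib. Concentrations fall in half-log steps from at or near clinical Cmax, or from 10 microM where Cmax is unknown; viability read-out.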

[1] = second compound 0.0316 µM, first compound 0.0316 µM
[2] = second compound 0.0316 µM, first compound 0.1 µM
[3] = second compound 0.0316 µM, first compound 0.316 µM
[4] = second compound 0.0316 µM, first compound 1 µM
[5] = second compound 0.0316 µM, first compound 3.16 µM
[6] = second compound 0.0316 µM, first compound 10 µM
[7] = second compound 0.1 µM, first compound 0.0316 µM
[8] = second compound 0.1 µM, first compound 0.1 µM
[9] = second compound 0.1 µM, first compound 0.316 µM
[10] = second compound 0.1 µM, first compound 1 µM
[11] = second compound 0.1 µM, first compound 3.16 µM
[12] = second compound 0.1 µM, first compound 10 µM
[13] = second compound 0.316 µM, first compound 0.0316 µM
[14] = second compound 0.316 µM, first compound 0.1 µM
[15] = second compound 0.316 µM, first compound 0.316 µM
[16] = second compound 0.316 µM, first compound 1 µM
[17] = second compound 0.316 µM, first compound 3.16 µM
[18] = second compound 0.316 µM, first compound 10 µM
[19] = second compound 1 µM, first compound 0.0316 µM
[20] = second compound 1 µM, first compound 0.1 µM
[21] = second compound 1 µM, first compound 0.316 µM
[22] = second compound 1 µM, first compound 1 µM
[23] = second compound 1 µM, first compound 3.16 µM
[24] = second compound 1 µM, first compound 10 µM
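Also: spheroids exposed to agents for seven days before readout.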
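For viability, T/C in this document: percent of vehicle DMSO control viability which is 100%.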

Molecule `Cn1cnc2c(F)c(Nc3ccc(Br)cc3Cl)c(C(=O)NOCCO)cc21` + Cc1nc(NC(=O)N2CCCC2C(N)=O)sc1-c1ccnc(C(C)(C)C(F)(F)F)c1 has an IC50 (second compound 0.0316 µM) of 289 nM, an IC50 (second compound 0.1 µM) of 319 nM and an IC50 (second compound 0.316 µM) of 160 nM. For the same molecule, the IC50 (second compound 1 µM) was 135 nM, the IC50 (second compound 3.16 µM) was 574 nM and the IC50 (second compound 10 µM) was 293 nM. The viability, T/C (second compound 0.0316 µM, first compound 0.00949 µM) was 96.6%, the viability, T/C (second compound 0.0316 µM, first compound 0.03 µM) was 63% and the viability, T/C (second compound 0.0316 µM, first compound 0.0949 µM) was 67.3%. The viability, T/C (second compound 0.0316 µM, first compound 0.3 µM) was 44.5%, the viability, T/C (second compound 0.0316 µM, first compound 0.949 µM) was 50.2% and the viability, T/C (second compound 0.0316 µM, first compound 3 µM) was 22.4%. For the same molecule, the viability, T/C (second compound 0.1 µM, first compound 0.00949 µM) was 80.8%, the viability, T/C (second compound 0.1 µM, first compound 0.03 µM) was 62.1% and the viability, T/C (second compound 0.1 µM, first compound 0.0949 µM) was 59.7%. The viability, T/C (second compound 0.1 µM, first compound 0.3 µM) was 46.8%, the viability, T/C (second compound 0.1 µM, first compound 0.949 µM) was 49.6% and the viability, T/C (second compound 0.1 µM, first compound 3 µM) was 31.2%. It also gave a viability, T/C (second compound 0.316 µM, first compound 0.00949 µM) of 82.2%, a viability, T/C (second compound 0.316 µM, first compound 0.03 µM) of 60.4% and a viability, T/C (second compound 0.316 µM, first compound 0.0949 µM) of 62.8%. For the same molecule, the viability, T/C (second compound 0.316 µM, first compound 0.3 µM) was 39.6%, the viability, T/C (second compound 0.316 µM, first compound 0.949 µM) was 35.3% and the viability, T/C (second compound 0.316 µM, first compound 3 µM) was 22.8%. For the same molecule, the viability, T/C (second compound 1 µM, first compound 0.00949 µM) was 67.7%, the viability, T/C (second compound 1 µM, first compound 0.03 µM) was 44.9% and the viability, T/C (second compound 1 µM, first compound 0.0949 µM) was 48.2%. It also gave a viability, T/C (second compound 1 µM, first compound 0.3 µM) of 62%, a viability, T/C (second compound 1 µM, first compound 0.949 µM) of 27.3% and a viability, T/C (second compound 1 µM, first compound 3 µM) of 29.4%. It also gave a viability, T/C (second compound 3.16 µM, first compound 0.00949 µM) of 118%, a viability, T/C (second compound 3.16 µM, first compound 0.03 µM) of 88.8% and a viability, T/C (second compound 3.16 µM, first compound 0.0949 µM) of 74.1%. The viability, T/C (second compound 3.16 µM, first compound 0.3 µM) was 70.2%, the viability, T/C (second compound 3.16 µM, first compound 0.949 µM) was 38.8% and the viability, T/C (second compound 3.16 µM, first compound 3 µM) was 24.4%. For the same molecule, the viability, T/C (second compound 10 µM, first compound 0.00949 µM) was 74.8%, the viability, T/C (second compound 10 µM, first compound 0.03 µM) was 70% and the viability, T/C (second compound 10 µM, first compound 0.0949 µM) was 62.4%. The viability, T/C (second compound 10 µM, first compound 0.3 µM) was 50.4%, the viability, T/C (second compound 10 µM, first compound 0.949 µM) was 31.1% and the viability, T/C (second compound 10 µM, first compound 3 µM) was 11.5%.
For `CCCS(=O)(=O)Nc1ccc(F)c(C(=O)c2c[nH]c3ncc(-c4ccc(Cl)cc4)cc23)c1F` + CC(Nc1ccc2c(c1)OCCn1cc(N3C(=O)OCC3C(F)F)nc1-2)C(N)=O, the IC50 (second compound 0.00316 µM) was 2230 nM, the IC50 (second compound 0.01 µM) was 1680 nM and the IC50 (second compound 0.0316 µM) was 3740 nM. For the same molecule, the IC50 (second compound 0.1 µM) was less than 31.6 nM, the IC50 (second compound 0.316 µM) was less than 31.6 nM and the IC50 (second compound 1 µM) was less than 31.6 nM. The viability, T/C (second compound 0.00316 µM, first compound 0.0316 µM) was 67%, the viability, T/C (second compound 0.00316 µM, first compound 0.1 µM) was 57.9% and the viability, T/C (second compound 0.00316 µM, first compound 0.316 µM) was 61.3%. The viability, T/C (second compound 0.00316 µM, first compound 1 µM) was 51.6%, the viability, T/C (second compound 0.00316 µM, first compound 3.16 µM) was 49.6% and the viability, T/C (second compound 0.00316 µM, first compound 10 µM) was 3.89%. For the same molecule, the viability, T/C (second compound 0.01 µM, first compound 0.0316 µM) was 95.3%, the viability, T/C (second compound 0.01 µM, first compound 0.1 µM) was 56.5% and the viability, T/C (second compound 0.01 µM, first compound 0.316 µM) was 67.8%. It also gave a viability, T/C (second compound 0.01 µM, first compound 1 µM) of 56%, a viability, T/C (second compound 0.01 µM, first compound 3.16 µM) of 49.7% and a viability, T/C (second compound 0.01 µM, first compound 10 µM) of 4.85%. It also gave a viability, T/C [1] of 69.3%, a viability, T/C [2] of 52.4% and a viability, T/C [3] of 69.7%. For the same molecule, the viability, T/C [4] was 32.1%, the viability, T/C [5] was 65.4% and the viability, T/C [6] was 4.59%. For the same molecule, the viability, T/C [7] was 38.9%, the viability, T/C [8] was 53% and the viability, T/C [9] was 47.8%. The viability, T/C [10] was 45.9%, the viability, T/C [11] was 38.5% and the viability, T/C [12] was 5.88%. It also gave a viability, T/C [13] of 43.5%, a viability, T/C [14] of 57.1% and a viability, T/C [15] of 55%. It also gave a viability, T/C [16] of 43.1%, a viability, T/C [17] of 47.3% and a viability, T/C [18] of 6.23%. For the same molecule, the viability, T/C [19] was 55.9%, the viability, T/C [20] was 44% and the viability, T/C [21] was 46.9%. For the same molecule, the viability, T/C [22] was 34%, the viability, T/C [23] was 50.1% and the viability, T/C [24] was 6.69%.
For `C=CC(=O)N1CCN(c2nc(=O)n(-c3c(C)ccnc3C(C)C)c3nc(-c4c(O)cccc4F)c(F)cc23)C(C)C1` (stereo unspecified) + Cc1nc(NC(=O)N2CCCC2C(N)=O)sc1-c1ccnc(C(C)(C)C(F)(F)F)c1, the IC50 (second compound 0.0316 µM) was greater than 10000 nM, the IC50 (second compound 0.1 µM) was 5980 nM and the IC50 (second compound 0.316 µM) was 6170 nM. It also gave an IC50 (second compound 1 µM) of 6270 nM, an IC50 (second compound 3.16 µM) greater than 10000 nM and an IC50 (second compound 10 µM) of 56.5 nM. The viability, T/C [1] was 75.1%, the viability, T/C [2] was 75.8% and the viability, T/C [3] was 114%. The viability, T/C [4] was 77%, the viability, T/C [5] was 91% and the viability, T/C [6] was 54.7%. The viability, T/C [7] was 68.7%, the viability, T/C [8] was 70.2% and the viability, T/C [9] was 68.1%. For the same molecule, the viability, T/C [10] was 53.5%, the viability, T/C [11] was 91.9% and the viability, T/C [12] was 33.6%. The viability, T/C [13] was 80.1%, the viability, T/C [14] was 63.8% and the viability, T/C [15] was 95.7%. For the same molecule, the viability, T/C [16] was 55.7%, the viability, T/C [17] was 66% and the viability, T/C [18] was 41.2%. For the same molecule, the viability, T/C [19] was 81.5%, the viability, T/C [20] was 65.3% and the viability, T/C [21] was 84.3%. For the same molecule, the viability, T/C [22] was 63.1%, the viability, T/C [23] was 92.3% and the viability, T/C [24] was 31.4%. It also gave a viability, T/C (second compound 3.16 µM, first compound 0.0316 µM) of 71.2%, a viability, T/C (second compound 3.16 µM, first compound 0.1 µM) of 61.8% and a viability, T/C (second compound 3.16 µM, first compound 0.316 µM) of 55.3%. It also gave a viability, T/C (second compound 3.16 µM, first compound 1 µM) of 75.8%, a viability, T/C (second compound 3.16 µM, first compound 3.16 µM) of 85.2% and a viability, T/C (second compound 3.16 µM, first compound 10 µM) of 50.9%. For the same molecule, the viability, T/C (second compound 10 µM, first compound 0.0316 µM) was 51.5%, the viability, T/C (second compound 10 µM, first compound 0.1 µM) was 49.2% and the viability, T/C (second compound 10 µM, first compound 0.316 µM) was 40.8%. The viability, T/C (second compound 10 µM, first compound 1 µM) was 51.6%, the viability, T/C (second compound 10 µM, first compound 3.16 µM) was 51.1% and the viability, T/C (second compound 10 µM, first compound 10 µM) was 37.4%.
